Test system: APPsw+/− mice
Assay: Memory testing: novel object location and novel object recognition, chronic treatment of APPsw+/− mice
Format: in vivo
Conditions: 1 mg/kg per day i.p. for two months from 8 months of age
Description: (A) Percent increase in cerebral blood flow (CBF) in response to brain activation in mice treated with vehicle (open bar) or FPS2 (closed bar). (B-C) novel object location (B) and novel object recognition (C) expressed as percent exploratory preference in APPsw^+/− mice treated with vehicle (open bar) or FPS2 (closed bar). FPS2 (1 mg/kg per day) was intraperitoneally administered for two months beginning at the age of 8 months old mice. Values are means±s.e.m, n=5-6 per group.
APPsw^+/− mice were treated with FPS2 (1 mg/kg) or with vehicle daily by intraperitoneal injection for two months starting at 8 months old. At the end of the treatment period functional changes in cerebral blood flow (CBF) to brain activation, and memory tests were determined. Brain and plasma Aβ levels were also determined in FPS2 and vehicle treated mice. […]
Compounds were synthesized in parallel using semiautomated chemical reactions. […] Purity was assessed by reverse-phase gradient HPLC. […] After two months of treatment, (i) the cerebral blood flow response to brain activation (whisker stimulation) was measured and (ii) behavioral tests including operant learning, novel object location (NOL), and novel object recognition (NOR) were performed. After these functional tests, the mice were sacrificed and their brains analyzed for Aβ40, Aβ42, and amyloid levels. • CBF response to brain activation. […]

Compound: CC(CC(=O)NCCCN(C(=O)c1cc([N+](=O)[O-])cc([N+](=O)[O-])c1)c1ccccc1)CC(C)(C)C (centres unmarked) [FPS2, 3,5-dinitro-N-phenyl-N-[3-[(3,5,5-trimethyl-1-oxohexyl)amino]propyl]-(9Cl)-benzamide]
- memory, novel object location: significantly increased
- memory, novel object recognition: significantly increased
